In patent publication US10399972B2, “Tricyclic compounds as inhibitors of mutant IDH enzymes” (Merck Sharp & Dohme Corp., priority 2015, dated 2019):

Target: R132H mutant IDH1 enzyme (Homo sapiens (Human), UniProt O75874, R132H)
Assay: R132H IDH1 Enzymatic Assay
Type: biochemical
Conditions: 1.5 nM final, 30 min preincubation, 60 min reaction, Kinase-GLO luminescence
Experimental: R132H IDH1 Enzymatic Assay
Each test compound (10 mM stock in DMSO) is diluted in DMSO to make a 10-point, 3-fold dilution series. 125 nL of each dilution or DMSO alone is dispensed to a 384-well Greiner Lumitrac 200 assay plate using an Echo® Liquid Handler. To each well of the plate is added 20 uL of enzyme in assay buffer or assay buffer alone. Assay buffer consists of 50 mM sodium phosphate, pH 7.0, 50 mM magnesium chloride, 50 mM sodium chloride, and 0.01% (w/v) bovine serum albumin. When present, the R132H mutant IDH1 enzyme is at a working concentration of 1.875 nM (final concentration in assay of 1.5 nM). The assay plate is allowed to incubate for 30 minutes at room temperature and 5 uL of 5× substrate mixture (2.5 uM nicotinamide adenine dinucleotide phosphate, 100 uM adenosine diphosphate, 7.5 mM glyceraldehyde-3-phosphate, 7.5 ug/mL of spinach glyceraldehyde-3-phosphate dehydrogenase, 25 nM phosphoglycerate kinase, and 5 mM alpha-ketoglutarate in assay buffer) is added to all wells. The reaction plate is incubated for 60 minutes followed by addition of 25 uL of Promega Kinase-GLO reagent to all wells and 10-minute incubation.
Luminescence is measured using a PerkinElmer Envision plate reader. The percent activity of each dilution is determined as the ratio of background corrected signal to the background corrected signal of wells receiving only DMSO. IC50 values are determined by fitting percent activity data to a four-parameter logistic dose response equation. The IC50 values of the exemplified compounds are included in Table 8.

Sequence of R132H mutant IDH1 enzyme (O75874 whole entry R132H): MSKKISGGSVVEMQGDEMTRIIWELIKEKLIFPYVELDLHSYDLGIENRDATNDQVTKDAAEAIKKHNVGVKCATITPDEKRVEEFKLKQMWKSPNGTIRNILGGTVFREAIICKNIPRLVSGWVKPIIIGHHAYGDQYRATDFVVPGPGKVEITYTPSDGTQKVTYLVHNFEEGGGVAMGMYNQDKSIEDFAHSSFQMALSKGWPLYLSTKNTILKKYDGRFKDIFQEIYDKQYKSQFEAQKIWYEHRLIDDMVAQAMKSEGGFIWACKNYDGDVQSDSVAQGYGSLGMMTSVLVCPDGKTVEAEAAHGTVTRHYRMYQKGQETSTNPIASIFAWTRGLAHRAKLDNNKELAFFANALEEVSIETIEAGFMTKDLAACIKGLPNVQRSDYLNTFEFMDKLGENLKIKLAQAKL

SMILES | IC50
O=C(C1CCN(CC(F)(F)F)CC1)N1Cc2cc(F)cnc2Nc2ccc(N3CC4CCC3CO4)cc21 (single isomer, unassigned) [Example 8, (8-(2-oxa-5-azabicyclo[2.2.2]octan-5-yl)-3-fluoro-5,11-dihydro-6H-benzo[b]pyrido[2,3-e][1,4]diazepin-6-yl)(1-(2,2,2-trifluoroethyl)piperidin-4-yl)methanone] | 25.4 nM
O=C(C1CCN(CC(F)(F)F)CC1)N1Cc2cc(F)cnc2Nc2ccc(N3CC4CCC3CO4)cc21 (single isomer, unassigned) [Example 9, (8-(2-oxa-5-azabicyclo[2.2.2]octan-5-yl)-3-fluoro-5,11-dihydro-6H-benzo[b]pyrido[2,3-e][1,4]diazepin-6-yl)(1-(2,2,2-trifluoroethyl)piperidin-4-yl)methanone] | 21.7 nM
CC(C)O[C@H]1CC[C@H](C(=O)N2Cc3cc(F)cnc3Nc3ccc(N4CC5CCC4CO5)cc32)CC1 (single isomer, unassigned) [Example 13, [3-fluoro-8-(2-oxa-5-azabicyclo[2.2.2]oct-5-yl)-5,11-dihydro-6H-pyrido[2,3-b][1,5]benzodiazepin-6-yl][trans-4-(propan-2-yloxy)cyclohexyl]methanone] | 35.5 nM
CC(C)O[C@H]1CC[C@H](C(=O)N2Cc3cc(F)cnc3Nc3ccc(N4CC5CCC4CO5)cc32)CC1 (single isomer, unassigned) [Example 14, [3-fluoro-8-(2-oxa-5-azabicyclo[2.2.2]oct-5-yl)-5,11-dihydro-6H-pyrido[2,3-b][1,5]benzodiazepin-6-yl][trans-4-(propan-2-yloxy)cyclohexyl]methanone] | 44.3 nM
CC(C)O[C@H]1CC[C@H](C(=O)N2Cc3cc(F)cnc3Nc3cc(F)c([C@@H]4COCCO4)cc32)OC1 (single isomer, unassigned) [Example 35] | 28 nM
CC(C)O[C@H]1CC[C@H](C(=O)N2Cc3cc(F)cnc3Nc3cc(F)c([C@@H]4COCCO4)cc32)OC1 (single isomer, unassigned) [Example 36] | 23.7 nM
CC(C)OC1CC[C@H](C(=O)N2Cc3cc(F)cnc3Nc3ccc(N4C[C@@H]5CC[C@H]4CO5)cc32)OC1 (stereo in doubt) [Example 49, (8-((1S,4S)-2-oxa-5-azabicyclo[2.2.2]octan-5-yl)-3-fluoro-5,11-dihydro-6H-benzo[b]pyrido[2,3-e][1,4]diazepin-6-yl)((2R,5R)-5-isopropoxytetrahydro-2H-pyran-2-yl)methanone] | 12 nM
O=C(C1CCN(CC(F)(F)F)CC1)N1Cc2cc(F)cnc2Nc2cc(F)c(Cl)cc21 [Example 5, (8-Chloro-3,9-difluoro-5,11-dihydro-6H-benzo[b]pyrido[2,3-e][1,4]diazepin-6-yl)(1-(2,2,2-trifluoroethyl)piperidin-4-yl)methanone] | 11.3 nM
O=C(C1CCN(CC(F)(F)F)CC1)N1Cc2cc(F)cnc2Nc2ccc(N3C[C@@H]4C[C@H]3CO4)cc21 [Example 6, (8-((1S,4S)-2-Oxa-5-azabicyclo[2.2.1]heptan-5-yl)-3-fluoro-5,11-dihydro-6H-benzo[b]pyrido[2,3-e][1,4]diazepin-6-yl)(1-(2,2,2-trifluoroethyl)piperidin-4-yl)methanone] | 12.1 nM
O=C(C1CCN(CC(F)(F)F)CC1)N1Cc2cc(F)cnc2Nc2ccc(N3[C@@H]4CO[C@H]5[C@@H]4OC[C@H]53)cc21 [Example 7, (3-fluoro-8-((3R,3aR,6R,6aR)-hexahydro-3,6-epiminofuro[3,2-b]furan-7-yl)-5,11-dihydro-6H-benzo[b]pyrido[2,3-e][1,4]diazepin-6-yl)(1-(2,2,2-trifluoroethyl)piperidin-4-yl)methanone] | 18.5 nM
CO[C@H]1C[C@H]2CC[C@@H](C1)N2c1ccc2c(c1)N(C(=O)C1CCN(CC(F)(F)F)CC1)Cc1cc(F)cnc1N2 [Example 10, (3-fluoro-8-((1R,3r,5S)-3-methoxy-8-azabicyclo[3.2.1]octan-8-yl)-5,11-dihydro-6H-benzo[b]pyrido[2,3-e][1,4]diazepin-6-yl)(1-(2,2,2-trifluoroethyl)piperidin-4-yl)methanone] | 6.2 nM
C[C@H]1CN(c2ccc3c(c2)N(C(=O)C2CCN(CC(F)(F)F)CC2)Cc2cc(F)cnc2N3)[C@@H](C)CO1 [Example 11, (8-((2S,5S)-2,5-dimethylmorpholino)-3-fluoro-5,11-dihydro-6H-benzo[b]pyrido[2,3-e][1,4]diazepin-6-yl)(1-(2,2,2-trifluoroethyl)piperidin-4-yl)methanone] | 23.8 nM
O=C(C1CCN(CC(F)(F)F)CC1)N1Cc2cc(F)cnc2Nc2ccc(N3CC4(CCCOC4)C3)cc21 [Example 12, (3-fluoro-8-(6-oxa-2-azaspiro[3.5]nonan-2-yl)-5,11-dihydro-6H-benzo[b]pyrido[2,3-e][1,4]diazepin-6-yl)(1-(2,2,2-trifluoroethyl)piperidin-4-yl)methanone] | 22.1 nM
O=C(C1CCN(CC(F)(F)F)CC1)N1Cc2cc(F)cnc2Nc2ccc(N3C[C@H]4COC[C@@H](C3)O4)cc21 [Example 15, (8-((1R,5S)-3,9-dioxa-7-azabicyclo[3.3.1]nonan-7-yl)-3-fluoro-5,11-dihydro-6H-benzo[b]pyrido[2,3-e][1,4]diazepin-6-yl)(1-(2,2,2-trifluoroethyl)piperidin-4-yl)methanone] | 83.4 nM
CC(C)O[C@H]1CC[C@H](C(=O)N2Cc3cc(F)cnc3Nc3ccc(N4CC5(CCCOC5)C4)cc32)CC1 [Example 16, [3-fluoro-8-(6-oxa-2-azaspiro[3.5]non-2-yl)-5,11-dihydro-6H-pyrido[2,3-b][1,5]benzodiazepin-6-yl][trans-4-(propan-2-yloxy)cyclohexyl]methanone] | 24 nM
CC(C)O[C@H]1CC[C@H](C(=O)N2Cc3cc(F)cnc3Nc3ccc(N4[C@@H]5CO[C@H]6[C@@H]5OC[C@H]64)cc32)CC1 [Example 17, (3-fluoro-8-((3R,3aR,6R,6aR)-hexahydro-3,6-epiminofuro[3,2-b]furan-7-yl)-5,11-dihydro-6H-benzo[b]pyrido[2,3-e][1,4]diazepin-6-yl)(trans-4-isopropoxycyclohexyl)methanone] | 28.4 nM
CC(C)O[C@H]1CC[C@H](C(=O)N2Cc3cc(F)cnc3Nc3ccc(N4C[C@@H]5C[C@H]4CO5)cc32)CC1 [Example 18, (8-((1S,4S)-2-oxa-5-azabicyclo[2.2.1]heptan-5-yl)-3-fluoro-5,11-dihydro-6H-benzo[b]pyrido[2,3-e][1,4]diazepin-6-yl)(trans-4-isopropoxycyclohexyl)methanone] | 8.6 nM
CC(C)O[C@H]1CC[C@@H](C(=O)N2Cc3cc(F)cnc3Nc3ccc(N4C[C@@H]5C[C@H]4CO5)cc32)CC1 [Example 19, (8-((1S,4S)-2-oxa-5-azabicyclo[2.2.1]heptan-5-yl)-3-fluoro-5,11-dihydro-6H-benzo[b]pyrido[2,3-e][1,4]diazepin-6-yl)(cis-4-isopropoxycyclohexyl)methanone] | 6 nM
O=C(C1CCN(CC(F)(F)F)CC1)N1Cc2cc(F)cnc2Nc2cc(F)c(N3C[C@@H]4C[C@H]3CO4)cc21 [Example 20, (8-((1S,4S)-2-oxa-5-azabicyclo[2.2.1]heptan-5-yl)-3,9-difluoro-5,11-dihydro-6H-benzo[b]pyrido[2,3-e][1,4]diazepin-6-yl)(1-(2,2,2-trifluoroethyl)piperidin-4-yl)methanone] | 6.7 nM
O=C(C1CCN(CC(F)(F)F)CC1)N1Cc2cc(F)cnc2Nc2cc(F)c(N3CC4(CCCOC4)C3)cc21 [Example 21, (3,9-difluoro-8-(6-oxa-2-azaspiro[3.5]nonan-2-yl)-5,11-dihydro-6H-benzo[b]pyrido[2,3-e][1,4]diazepin-6-yl)(1-(2,2,2-trifluoroethyl)piperidin-4-yl)methanone] | 4.5 nM
O=C(C1CCN(CC(F)(F)F)CC1)N1Cc2cc(F)cnc2Nc2cc(F)c(N3[C@@H]4CO[C@H]5[C@@H]4OC[C@H]53)cc21 [Example 22, (3,9-difluoro-8-((3R,3aR,6R,6aR)-hexahydro-3,6-epiminofuro[3,2-b]furan-7-yl)-5,11-dihydro-6H-benzo[b]pyrido[2,3-e][1,4]diazepin-6-yl)(1-(2,2,2-trifluoroethyl)piperidin-4-yl)methanone] | 4.2 nM
C[C@H]1CN(c2cc3c(cc2F)Nc2ncc(F)cc2CN3C(=O)C2CCN(CC(F)(F)F)CC2)[C@@H](C)CO1 [Example 23, (8-((2S,5S)-2,5-dimethylmorpholino)-3,9-difluoro-5,11-dihydro-6H-benzo[b]pyrido[2,3-e][1,4]diazepin-6-yl)(1-(2,2,2-trifluoroethyl)piperidin-4-yl)methanone] | 23 nM
CC(C)O[C@H]1CC[C@H](C(=O)N2Cc3cc(F)cnc3Nc3cc(F)c(N4C[C@@H]5C[C@H]4CO5)cc32)CC1 [Example 24, {3,9-difluoro-8-[(1S,4S)-2-oxa-5-azabicyclo[2.2.1]hept-5-yl]-5,11-dihydro-6H-pyrido[2,3-b][1,5]benzodiazepin-6-yl}[trans-4-(propan-2-yloxy)cyclohexyl]methanone] | 5.6 nM
